Experimental data: PMC6416464 (Drug Metabolism Letters, 2018)

Tests used:
[1] = Metabolic stability, incubation with human liver cytosol; assay type: in vitro ADME; details: 1 µM test compound, 1 mg/mL protein
[2] = biological target: rCYP3A4 (Homo sapiens, UniProt P08684); details: human, pH 7.4; for % Metabolized at 30 min Incubation with Human Liver Fractions/Enzymes rCYP3A4 / % Contribution of CYP Enzymes (fmCYP) in Metabolism, CYP3A4 / rCYP Clint, CYP3A4: recombinant enzyme; for % Metabolized at 30 min Incubation with Human Liver Fractions/Enzymes rCYP3A4: 0.5 h
[3] = biological target: T1, CYP3A4 (Homo sapiens, UniProt P08684); experiment: in vitro; details: microsomes, pH 7.4, % Inhibition of Control Activity CYP3A4 (substrate, testosterone)
[4] = biological target: T1, CYP3A4; experiment: in vitro; details: microsomes, pH 7.4
[5] = Metabolic stability, incubation with human liver microsomes; details: 1 µM test compound, 0.5 mg/mL protein
[6] = biological target: T2, CYP1A2 (Homo sapiens, UniProt P05177); experiment: CYP inhibition in human liver microsomes, CYP1A2; details: inhibitor 10 µM; HLM; NI: No Inhibitin; 10 µM
T2 sequence (P05177 1-516): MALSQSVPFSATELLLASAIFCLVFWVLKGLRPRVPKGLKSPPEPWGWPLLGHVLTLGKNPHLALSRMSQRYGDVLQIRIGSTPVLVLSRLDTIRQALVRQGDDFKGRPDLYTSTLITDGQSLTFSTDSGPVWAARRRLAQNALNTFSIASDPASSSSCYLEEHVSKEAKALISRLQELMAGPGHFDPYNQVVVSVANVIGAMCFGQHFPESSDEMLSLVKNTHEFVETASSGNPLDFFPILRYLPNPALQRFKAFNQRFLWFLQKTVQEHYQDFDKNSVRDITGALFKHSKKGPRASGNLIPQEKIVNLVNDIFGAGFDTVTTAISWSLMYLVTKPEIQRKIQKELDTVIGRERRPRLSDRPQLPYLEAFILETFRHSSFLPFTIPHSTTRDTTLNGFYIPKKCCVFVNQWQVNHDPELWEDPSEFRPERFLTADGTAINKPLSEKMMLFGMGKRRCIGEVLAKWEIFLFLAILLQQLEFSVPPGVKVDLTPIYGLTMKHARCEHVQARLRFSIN

[7] = biological target: T3, CYP2C8 (Homo sapiens, UniProt P10632); experiment: CYP inhibition in human liver microsomes, CYP2C8; details: human, human liver microsomes, pH 7.4, probe paclitaxel
T3 sequence (P10632 1-490): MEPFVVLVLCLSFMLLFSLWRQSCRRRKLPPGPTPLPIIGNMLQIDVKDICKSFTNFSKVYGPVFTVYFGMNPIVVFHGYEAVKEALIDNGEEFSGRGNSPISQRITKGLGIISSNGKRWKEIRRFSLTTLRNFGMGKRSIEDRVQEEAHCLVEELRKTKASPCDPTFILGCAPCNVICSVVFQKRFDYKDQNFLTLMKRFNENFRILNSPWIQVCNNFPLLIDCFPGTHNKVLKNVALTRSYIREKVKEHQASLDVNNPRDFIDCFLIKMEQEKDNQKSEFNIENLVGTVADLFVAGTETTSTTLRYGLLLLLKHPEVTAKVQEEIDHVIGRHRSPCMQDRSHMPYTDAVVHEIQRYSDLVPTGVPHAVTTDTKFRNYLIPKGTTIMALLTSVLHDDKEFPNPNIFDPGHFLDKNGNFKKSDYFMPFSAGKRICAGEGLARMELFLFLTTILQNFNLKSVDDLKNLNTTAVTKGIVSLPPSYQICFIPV

[8] = biological target: CYP2C9 (Homo sapiens, UniProt P11712); experiment: CYP inhibition in human liver microsomes, CYP2C9
[9] = biological target: CYP2C19 (Homo sapiens, UniProt P33261); experiment: CYP inhibition in human liver microsomes, CYP2C19; details: inhibitor 10 µM; HLM; NI: No Inhibitin; 10 µM
[10] = biological target: T4, rCYP1A2 (Homo sapiens, UniProt P05177); experiment: Metabolic stability / reaction phenotyping with recombinant human CYP1A2; details: for % Metabolized at 30 min Incubation with Human Liver Fractions/Enzymes rCYP1A2: 1 µM test compound, 100 pmol/mL; for % Contribution of CYP Enzymes (fmCYP) in Metabolism, CYP1A2 / Predicted Microsomal Clint, CYP1A2 / rCYP Clint, CYP1A2: human, recombinant human CYP1A2, 1 µM, pH 7.4
T4 sequence (P05177 1-516): T2 sequence (P05177 1-516)

[11] = biological target: T5, rCYP2C8 (Homo sapiens, UniProt P10632); experiment: Metabolic stability / reaction phenotyping with recombinant human CYP2C8; details: for % Metabolized at 30 min Incubation with Human Liver Fractions/Enzymes rCYP2C8: 1 µM test compound, 100 pmol/mL; for % Contribution of CYP Enzymes (fmCYP) in Metabolism, CYP2C8 / Predicted Microsomal Clint, CYP2C8 / rCYP Clint, CYP2C8: human, recombinant human CYP2C8, 1 µM, pH 7.4
T5 sequence (P10632 1-490): T3 sequence (P10632 1-490)

[12] = biological target: rCYP2C9 (Homo sapiens, UniProt P11712); experiment: Metabolic stability / reaction phenotyping with recombinant human CYP2C9; details: for % Metabolized at 30 min Incubation with Human Liver Fractions/Enzymes rCYP2C9: 1 µM test compound, 100 pmol/mL
[13] = biological target: rCYP2D6 (Homo sapiens, UniProt P10635); experiment: Metabolic stability / reaction phenotyping with recombinant human CYP2D6; details: for % Metabolized at 30 min Incubation with Human Liver Fractions/Enzymes rCYP2D6: 1 µM test compound, 100 pmol/mL; for % Contribution of CYP Enzymes (fmCYP) in Metabolism, CYP2D6 / Predicted Microsomal Clint, CYP2D6 / rCYP Clint, CYP2D6: human, recombinant human CYP2D6, 1 µM, pH 7.4
[14] = biological target: rCYP2C19 (Homo sapiens, UniProt P33261); experiment: Metabolic stability / reaction phenotyping with recombinant human CYP2C19; details: for % Metabolized at 30 min Incubation with Human Liver Fractions/Enzymes rCYP2C19: 1 µM test compound, 100 pmol/mL
[15] = biological target: T1, CYP3A4; details: human, microsomes, 10 µM, pH 7.4
[16] = biological target: CYP2D6 (Homo sapiens, UniProt P10635); experiment: CYP inhibition in human liver microsomes, CYP2D6; details: inhibitor 10 µM; HLM; NI: No Inhibitin; 10 µM
[17] = human, recombinant human CYP2C9, 1 µM, pH 7.4
[18] = human, recombinant human CYP2C19, 1 µM, pH 7.4

rCYP2C9, sequence (P11712 whole entry): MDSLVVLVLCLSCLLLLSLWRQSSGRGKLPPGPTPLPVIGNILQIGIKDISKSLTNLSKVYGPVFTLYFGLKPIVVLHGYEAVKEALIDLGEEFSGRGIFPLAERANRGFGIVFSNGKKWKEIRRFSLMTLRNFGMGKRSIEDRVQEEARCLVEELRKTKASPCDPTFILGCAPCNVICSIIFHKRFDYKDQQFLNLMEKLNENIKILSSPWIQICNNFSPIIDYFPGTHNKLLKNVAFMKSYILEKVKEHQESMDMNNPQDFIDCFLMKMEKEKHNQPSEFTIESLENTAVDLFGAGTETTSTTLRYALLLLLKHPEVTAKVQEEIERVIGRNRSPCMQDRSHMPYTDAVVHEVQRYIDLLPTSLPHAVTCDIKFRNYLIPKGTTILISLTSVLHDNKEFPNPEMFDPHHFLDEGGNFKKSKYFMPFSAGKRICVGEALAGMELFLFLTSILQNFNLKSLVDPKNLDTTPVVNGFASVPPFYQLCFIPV
rCYP2C19, sequence (P33261 whole entry): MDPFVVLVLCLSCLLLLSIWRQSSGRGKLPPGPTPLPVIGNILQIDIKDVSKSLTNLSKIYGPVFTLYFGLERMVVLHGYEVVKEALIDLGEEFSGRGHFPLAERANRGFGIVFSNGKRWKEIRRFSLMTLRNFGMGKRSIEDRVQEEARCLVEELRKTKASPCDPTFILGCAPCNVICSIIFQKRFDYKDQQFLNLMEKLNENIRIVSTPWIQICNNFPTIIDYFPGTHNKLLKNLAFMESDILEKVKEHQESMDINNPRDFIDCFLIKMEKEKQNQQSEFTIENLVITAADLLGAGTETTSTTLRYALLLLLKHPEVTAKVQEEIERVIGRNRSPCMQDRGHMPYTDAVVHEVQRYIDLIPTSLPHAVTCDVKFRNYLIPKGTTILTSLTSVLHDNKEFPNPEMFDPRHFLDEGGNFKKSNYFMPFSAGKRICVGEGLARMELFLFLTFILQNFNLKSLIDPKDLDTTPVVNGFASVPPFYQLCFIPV
T1 sequence (P08684 2-503): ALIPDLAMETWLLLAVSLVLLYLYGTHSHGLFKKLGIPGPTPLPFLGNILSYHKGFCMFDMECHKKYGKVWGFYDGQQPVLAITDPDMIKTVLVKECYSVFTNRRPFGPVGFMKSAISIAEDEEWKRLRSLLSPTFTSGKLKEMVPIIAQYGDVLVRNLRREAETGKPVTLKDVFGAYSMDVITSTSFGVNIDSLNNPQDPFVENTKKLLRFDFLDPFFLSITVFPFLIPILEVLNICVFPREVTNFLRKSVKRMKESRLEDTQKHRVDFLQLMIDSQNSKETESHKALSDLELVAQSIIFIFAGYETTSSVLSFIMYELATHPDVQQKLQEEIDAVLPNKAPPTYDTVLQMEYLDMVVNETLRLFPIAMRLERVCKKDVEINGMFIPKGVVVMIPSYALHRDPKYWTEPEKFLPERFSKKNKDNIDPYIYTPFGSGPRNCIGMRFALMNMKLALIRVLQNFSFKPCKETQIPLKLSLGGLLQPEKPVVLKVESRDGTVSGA
rCYP3A4, sequence (P08684 whole entry): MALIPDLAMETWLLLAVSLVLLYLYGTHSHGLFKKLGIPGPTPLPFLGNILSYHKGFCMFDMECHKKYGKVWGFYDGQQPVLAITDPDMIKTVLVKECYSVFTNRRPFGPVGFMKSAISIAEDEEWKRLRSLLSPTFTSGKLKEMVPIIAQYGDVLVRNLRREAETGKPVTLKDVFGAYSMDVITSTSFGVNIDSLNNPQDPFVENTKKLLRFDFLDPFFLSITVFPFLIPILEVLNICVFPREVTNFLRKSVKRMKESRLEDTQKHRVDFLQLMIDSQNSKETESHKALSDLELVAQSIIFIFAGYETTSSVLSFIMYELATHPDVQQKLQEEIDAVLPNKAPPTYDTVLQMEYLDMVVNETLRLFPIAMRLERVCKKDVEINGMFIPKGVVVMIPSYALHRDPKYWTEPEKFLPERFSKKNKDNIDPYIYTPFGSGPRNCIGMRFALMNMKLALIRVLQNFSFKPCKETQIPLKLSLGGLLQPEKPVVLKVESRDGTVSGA
rCYP2D6, sequence (P10635 whole entry): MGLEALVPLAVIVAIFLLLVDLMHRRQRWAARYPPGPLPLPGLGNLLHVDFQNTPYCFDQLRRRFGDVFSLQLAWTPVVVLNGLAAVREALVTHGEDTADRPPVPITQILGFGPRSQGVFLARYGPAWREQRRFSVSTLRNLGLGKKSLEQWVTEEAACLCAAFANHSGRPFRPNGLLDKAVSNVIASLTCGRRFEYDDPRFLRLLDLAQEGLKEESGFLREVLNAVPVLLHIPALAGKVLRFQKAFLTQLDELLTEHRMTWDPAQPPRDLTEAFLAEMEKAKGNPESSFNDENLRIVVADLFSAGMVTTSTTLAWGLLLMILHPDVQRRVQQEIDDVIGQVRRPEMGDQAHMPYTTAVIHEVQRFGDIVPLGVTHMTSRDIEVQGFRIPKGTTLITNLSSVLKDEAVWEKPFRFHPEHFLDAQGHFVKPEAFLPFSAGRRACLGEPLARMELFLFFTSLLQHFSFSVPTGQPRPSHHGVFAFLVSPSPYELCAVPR
CYP2C9, sequence (P11712 whole entry): as the sequence (P11712 whole entry) above
CYP2C19, sequence (P33261 whole entry): as the sequence (P33261 whole entry) above
CYP2D6, sequence (P10635 whole entry): as the sequence (P10635 whole entry) above

Structure (SMILES) | % Metabolized at 30 min Incubation with Human Liver Fractions/Enzymes Cytosol [1] | Predicted Microsomal Clint, CYP3A4 [2] | % Metabolized at 30 min Incubation with Human Liver Fractions/Enzymes rCYP3A4 [2] | % Contribution of CYP Enzymes (fmCYP) in Metabolism, CYP3A4 [2] | rCYP Clint, CYP3A4 [2] | inhibition at 2 µM [3] | inhibition at 2 µM [4] | inhibition at 10 µM [4] | % Metabolized at 30 min Incubation with Human Liver Fractions/Enzymes HLM [5] | inhibition at 2 µM [7] | inhibition at 10 µM [7] | % Metabolized at 30 min Incubation with Human Liver Fractions/Enzymes rCYP1A2 [10] | % Contribution of CYP Enzymes (fmCYP) in Metabolism, CYP1A2 [10] | Predicted Microsomal Clint, CYP1A2 [10] | rCYP Clint, CYP1A2 [10] | % Metabolized at 30 min Incubation with Human Liver Fractions/Enzymes rCYP2C8 [11] | % Contribution of CYP Enzymes (fmCYP) in Metabolism, CYP2C8 [11] | Predicted Microsomal Clint, CYP2C8 [11] | rCYP Clint, CYP2C8 [11] | % Metabolized at 30 min Incubation with Human Liver Fractions/Enzymes rCYP2C9 [12] | further results
CC(C)(O)c1ccccc1CC[C@@H](SCC1(CC(=O)O)CC1)c1cccc(/C=C/c2ccc3ccc(Cl)cc3n2)c1 [Montelukast, montelukast, reference compound] | 10.13% | 19.054 µL/min/mg Protein | 40.25% | 47.07% | 0.172 µL/min/pmol | 0.79% | 20% | 48% | 25.71% | 93.7% | 97.3% | 9.37% | 4.21% | 1.705 µL/min/mg Protein | 0.033 µL/min/pmol | 52.29% | 39.00% | 15.789 µL/min/mg Protein | 0.247 µL/min/pmol | 10.85% | inhibition at 10 µM [3]: 11.2%; % Inhibition of Control Activity CYP1A2 [6]: 24.96%; IC50 [8]: 1.34 µM; % Inhibition of Control Activity CYP2C19 [9]: 22.70%; % Contribution of CYP Enzymes (fmCYP) in Metabolism, CYP2C9 [12, 17]: 9.08%; Predicted Microsomal Clint, CYP2C9 [12, 17]: 3.675 µL/min/mg Protein; rCYP Clint, CYP2C9 [12, 17]: 0.038 µL/min/pmol; % Metabolized at 30 min Incubation with Human Liver Fractions/Enzymes rCYP2D6 [13]: 7.46%; % Contribution of CYP Enzymes (fmCYP) in Metabolism, CYP2D6 [13]: 0.64%; Predicted Microsomal Clint, CYP2D6 [13]: 0.258 µL/min/mg Protein; rCYP Clint, CYP2D6 [13]: 0.026 µL/min/pmol; % Metabolized at 30 min Incubation with Human Liver Fractions/Enzymes rCYP2C19 [14]: 0.00%
O=C1Cc2cc(CCN3CCN(c4nsc5ccccc45)CC3)c(Cl)cc2N1 [Ziprasidone, ziprasidone, reference compound] | 10.86% | 53.530 µL/min/mg Protein | 76.47% | 86.67% | 0.482 µL/min/pmol | 8.3% | 22% | 31.1% | 83.11% | < 0% | 12% | 5.98% | 1.73% | 1.069 µL/min/mg Protein | 0.021 µL/min/pmol | 22.84% | 8.96% | 5.532 µL/min/mg Protein | 0.086 µL/min/pmol | 0.00% | % Inhibition of Control Activity CYP3A4 (substrate, testosterone) [15]: 33.06%; % Inhibition of Control Activity CYP2C9 ([8]; inhibitor 10 µM, HLM, NI: No Inhibitin, 10 µM): 1.44%; % Inhibition of Control Activity CYP2D6 [16]: 11.70%; % Metabolized at 30 min Incubation with Human Liver Fractions/Enzymes rCYP2D6 [13]: 3.73%; % Contribution of CYP Enzymes (fmCYP) in Metabolism, CYP2D6 [13]: 0.21%; Predicted Microsomal Clint, CYP2D6 [13]: 0.127 µL/min/mg Protein; rCYP Clint, CYP2D6 [13]: 0.013 µL/min/pmol; % Metabolized at 30 min Incubation with Human Liver Fractions/Enzymes rCYP2C19 [14]: 21.17%; % Contribution of CYP Enzymes (fmCYP) in Metabolism, CYP2C19 [14, 18]: 2.44%; Predicted Microsomal Clint, CYP2C19 [14, 18]: 1.507 µL/min/mg Protein; rCYP Clint, CYP2C19 [14, 18]: 0.079 µL/min/pmol
